Results as given in patent publication US20160122342A1, “ENHANCER OF ZESTE HOMOLOG 2 INHIBITORS” (GLAXOSMITHKLINE INTELLECTUAL PROPERTY (NO.2) LIMITED, priority 2013, published 2016).

What follows are compounds tested against T1, EZH2 within the PRC2 complex (Homo sapiens, UniProt Q15910) (assay: Assay Protocol 2: EZH2 methyltransferase scintillation proximity assay, biotinylated histone H3 peptide substrate). Conditions: SPA, 3H-SAM, biotinylated unmethylated histone H3K27 peptide substrate, 5-member PRC2 complex.
T1 construct: FLAG; made in house; host or cells: Sf9 cells
T1 sequence (Q15910 whole entry): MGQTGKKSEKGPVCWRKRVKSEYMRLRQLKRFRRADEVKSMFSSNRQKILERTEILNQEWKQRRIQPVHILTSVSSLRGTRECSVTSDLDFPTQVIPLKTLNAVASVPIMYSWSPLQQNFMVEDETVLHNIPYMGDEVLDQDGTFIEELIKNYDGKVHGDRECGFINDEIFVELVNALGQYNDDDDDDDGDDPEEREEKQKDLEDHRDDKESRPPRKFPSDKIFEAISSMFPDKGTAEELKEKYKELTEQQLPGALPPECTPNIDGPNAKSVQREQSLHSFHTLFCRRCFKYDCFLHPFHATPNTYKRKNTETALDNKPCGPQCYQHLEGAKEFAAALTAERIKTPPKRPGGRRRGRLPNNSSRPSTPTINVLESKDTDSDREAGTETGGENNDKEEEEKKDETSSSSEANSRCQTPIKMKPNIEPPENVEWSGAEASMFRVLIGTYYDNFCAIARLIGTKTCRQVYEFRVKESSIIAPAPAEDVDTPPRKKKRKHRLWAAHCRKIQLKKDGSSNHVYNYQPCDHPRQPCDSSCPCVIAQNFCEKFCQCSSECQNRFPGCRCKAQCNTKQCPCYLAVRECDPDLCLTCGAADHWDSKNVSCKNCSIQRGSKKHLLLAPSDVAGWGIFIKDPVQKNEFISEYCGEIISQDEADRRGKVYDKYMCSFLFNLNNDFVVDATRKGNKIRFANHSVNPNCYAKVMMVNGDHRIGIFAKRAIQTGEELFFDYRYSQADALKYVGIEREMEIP
T1 sequence (O75530 whole entry partner): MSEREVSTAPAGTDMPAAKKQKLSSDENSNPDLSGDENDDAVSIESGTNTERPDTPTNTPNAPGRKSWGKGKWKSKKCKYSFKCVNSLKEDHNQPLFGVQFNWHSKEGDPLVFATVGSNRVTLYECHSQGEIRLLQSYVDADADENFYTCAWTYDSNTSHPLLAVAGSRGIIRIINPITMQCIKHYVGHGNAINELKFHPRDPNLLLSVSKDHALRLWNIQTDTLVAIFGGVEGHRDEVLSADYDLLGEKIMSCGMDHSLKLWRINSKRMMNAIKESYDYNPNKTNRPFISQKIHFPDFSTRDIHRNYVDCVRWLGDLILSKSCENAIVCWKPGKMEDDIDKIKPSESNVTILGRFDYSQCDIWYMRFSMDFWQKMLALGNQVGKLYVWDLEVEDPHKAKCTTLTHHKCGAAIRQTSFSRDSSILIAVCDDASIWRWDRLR
T1 sequence (Q15022 whole entry partner): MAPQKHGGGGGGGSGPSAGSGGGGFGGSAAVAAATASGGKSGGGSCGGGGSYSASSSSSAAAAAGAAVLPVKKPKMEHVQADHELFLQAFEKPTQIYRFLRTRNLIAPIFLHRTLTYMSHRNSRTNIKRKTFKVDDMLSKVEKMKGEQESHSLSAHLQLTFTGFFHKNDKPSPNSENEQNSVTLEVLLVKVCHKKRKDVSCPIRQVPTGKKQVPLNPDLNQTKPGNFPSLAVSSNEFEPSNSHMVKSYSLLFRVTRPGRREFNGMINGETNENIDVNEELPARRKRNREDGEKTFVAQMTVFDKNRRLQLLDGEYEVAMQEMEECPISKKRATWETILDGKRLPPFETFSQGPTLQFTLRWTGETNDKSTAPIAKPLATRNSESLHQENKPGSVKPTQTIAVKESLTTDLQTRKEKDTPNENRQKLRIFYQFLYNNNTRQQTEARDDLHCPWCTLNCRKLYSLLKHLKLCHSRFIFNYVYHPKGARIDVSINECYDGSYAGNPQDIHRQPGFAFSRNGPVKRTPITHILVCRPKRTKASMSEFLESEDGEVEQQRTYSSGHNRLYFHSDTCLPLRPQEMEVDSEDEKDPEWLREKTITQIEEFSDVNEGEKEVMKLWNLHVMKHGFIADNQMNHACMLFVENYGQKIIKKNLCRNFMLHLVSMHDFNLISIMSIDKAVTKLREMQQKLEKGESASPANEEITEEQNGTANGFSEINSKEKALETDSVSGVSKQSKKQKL
T1 sequence (Q09028 whole entry partner): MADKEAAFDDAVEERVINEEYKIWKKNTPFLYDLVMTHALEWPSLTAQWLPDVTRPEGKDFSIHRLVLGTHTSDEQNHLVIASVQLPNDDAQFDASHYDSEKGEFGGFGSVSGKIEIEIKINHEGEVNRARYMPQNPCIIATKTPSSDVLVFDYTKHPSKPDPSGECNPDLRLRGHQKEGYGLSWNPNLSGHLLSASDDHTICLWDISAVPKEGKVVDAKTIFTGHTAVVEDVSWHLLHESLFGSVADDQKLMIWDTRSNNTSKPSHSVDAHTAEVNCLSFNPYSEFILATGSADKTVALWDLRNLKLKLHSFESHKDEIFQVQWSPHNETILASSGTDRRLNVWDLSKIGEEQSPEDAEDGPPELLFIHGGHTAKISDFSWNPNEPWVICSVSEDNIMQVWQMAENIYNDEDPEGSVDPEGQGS
T1 sequence (Q6ZN18 whole entry partner): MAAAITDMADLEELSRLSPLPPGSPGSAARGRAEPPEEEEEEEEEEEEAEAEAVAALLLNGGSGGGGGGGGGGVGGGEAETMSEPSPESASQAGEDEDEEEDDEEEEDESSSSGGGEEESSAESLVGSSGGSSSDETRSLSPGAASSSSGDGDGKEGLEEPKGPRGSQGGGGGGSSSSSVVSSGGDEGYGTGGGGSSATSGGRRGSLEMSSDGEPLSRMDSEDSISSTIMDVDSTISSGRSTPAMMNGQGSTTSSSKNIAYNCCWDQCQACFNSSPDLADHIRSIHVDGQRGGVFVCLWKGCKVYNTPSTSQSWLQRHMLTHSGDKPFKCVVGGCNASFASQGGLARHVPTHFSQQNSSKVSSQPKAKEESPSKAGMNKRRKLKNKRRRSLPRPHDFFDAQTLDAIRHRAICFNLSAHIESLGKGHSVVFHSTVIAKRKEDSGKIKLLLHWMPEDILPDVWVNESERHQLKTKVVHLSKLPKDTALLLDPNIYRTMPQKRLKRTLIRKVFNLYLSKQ
Format: biochemical
Protocol: Compounds contained herein were evaluated for their ability to inhibit the methyltransferase activity of EZH2 within the PRC2 complex. […] The peptides were captured on streptavidin-coated SPA beads and the resulting signal was read on a ViewLux plate reader. • 4. Prepare 10 mM stock of compounds from solid in 100% DMSO. • 5. […] Dispense 10 nL of compound from the dilution plate into reaction plates (Corning, 384-well polystyrene NBS, Cat#3673). Prepare the following solutions: • 7. 1× Base Buffer, 50 mM Tris-HCl, pH 8, 2 mM MgCl2: Per 1 L of base buffer, combine 1 M Tris-HCl, pH 8 (50 mL), 1 M MgCl2 (2 mL), and distilled water (948 mL). • 8. 1× Assay Buffer: Per 10 mL of 1× Assay Buffer, combine 1× Base Buffer (9.96 mL), 1 M DTT (40 uL), and 10% Tween-20 (1 uL) to provide a final concentration of 50 mM Tris-HCl, pH 8, 2 mM MgCl2, 4 mM DTT, 0.001% Tween-20. • 9. 2× Enzyme Solution: […] SPA Bead Solution: Per 1 mL of SPA Bead Solution, combine Streptavidin coated SPA beads (PerkinElmer, Cat# RPNQ0261, 40 mg) and 1× Assay Buffer (1 mL) to provide a working concentration of 40 mg/mL. • 11. 2× Substrate Solution: Per 10 mL of 2× Substrate Solution, combine 40 mg/mL SPA Bead Solution (375 uL), 1 mM biotinylated histone H3K27 peptide (200 uL), 12.5 uM 3H-SAM (240 uL; 1 mCi/mL), 1 mM cold SAM (57 uL), and 1× Assay Buffer (9.13 mL) to provide a final concentration of 0.75 mg/mL SPA Bead Solution, 10 uM biotinylated histone H3K27 peptide, 0.15 uM 3H-SAM (˜12 uCi/mL 3H-SAM), and 2.85 uM cold SAM. • 12. 2.67× Quench Solution: Per 10 mL of 2.67× Quench Solution, combine 1× Assay Buffer (9.73 mL) and 10 mM cold SAM (267 uL) to provide a final concentration of 100 uM cold SAM. • 3. […] Dispense 5 uL/well of 1× Assay Buffer to column 18 (low control reactions). • 11. Dispense 5 uL/well of 2× Substrate Solution to columns 1-24 (note: substrate solution should be mixed to ensure homogeneous bead suspension before dispensing into matrix reservoir). • 12. Dispense 5 uL/well of 2× Enzyme Solution to columns 1-17, 19-24. • 13. Incubate the reaction for 60 min at room temperature. • 5. Dispense 6 uL/well of the 2.67× Quench Solution to columns 1-24. • 6. Seal assay plates and spin for ˜1 min at 500 rpm. • 7. Dark adapt plates in the ViewLux instrument for 15-60 min. • 2. Read the assay plates on the Viewlux Plate Reader utilizing the 613 nm emission filter or clear filter (300 s exposure). Reagent addition can be done manually or with automated liquid handler. Percent inhibition was calculated relative to the DMSO control for each compound concentration and the resulting values were fit using standard IC50 fitting parameters within the ABASE data fitting software package.

IC50	SMILES
0.079 µM	CCN1CCC(N(CC)c2cccc3c2C/C=C/CCc2cc(C)[nH]c(=O)c2CNC3=O)CC1 [Example 44, (E)-10-(ethyl(1-ethylpiperidin-4-yl)amino)-3-methyl-5,6,15,16-tetrahydrobenzo[c]pyrido[4,3-j][1]azacyclododecine-1,14(2H,9H)-dione]
0.05 µM	CCN(c1cccc2c1C/C=C/CCc1cc(C)[nH]c(=O)c1CNC2=O)C1CCN(Cc2ccn(C)n2)CC1 [Example 45]
0.251 µM	CCOC(=O)C(C)(C)N1CCC(N(CC)c2cccc3c2C/C=C/CCc2cc(C)[nH]c(=O)c2CNC3=O)CC1 [Example 46, (E)-ethyl 2-(4-(ethyl(3-methyl-1,14-dioxo-1,2,5,6,9,14,15,16-octahydrobenzo[c]pyrido[4,3-j][1]azacyclododecin-10-yl)amino)piperidin-1-yl)-2-methylpropanoate]
0.2 µM	CCN(c1cccc2c1C/C=C/CCc1cc(C)[nH]c(=O)c1CNC2=O)C1CCN(CC(F)(F)F)CC1 [Example 47, (E)-10-(ethyl(1-(2,2,2-trifluoroethyl)piperidin-4-yl)amino)-3-methyl-5,6,15,16-tetrahydrobenzo[c]pyrido[4,3-j][1]azacyclododecine-1,14(2H,9H)-dione]
0.316 µM	CCN(c1cccc2c1C/C=C/CCc1cc(C)[nH]c(=O)c1CNC2=O)C1CCN(Cc2cccc(C)n2)CC1 [Example 48, (E)-10-(ethyl(1-((6-methylpyridin-2-yl)methyl)piperidin-4-yl)amino)-3-methyl-5,6,15,16-tetrahydrobenzo[c]pyrido[4,3-j][1]azacyclododecine-1,14(2H,9H)-dione]
0.158 µM	CCN(CC)[C@H]1CC[C@H](N(CC)c2cccc3c2C/C=C/CCc2cc(C)[nH]c(=O)c2CNC3=O)CC1 [Example 49, (E)-10-((trans-4-(diethylamino)cyclohexyl)(ethyl)amino)-3-methyl-5,6,15,16-tetrahydrobenzo[c]pyrido[4,3-j][1]azacyclododecine-1,14(2H,9H)-dione]
0.126 µM	CCN(c1cccc2c1C/C=C/CCc1cc(C)[nH]c(=O)c1CNC2=O)[C@H]1CC[C@H](N2CCOCC2)CC1 [Example 50, (E)-10-(ethyl(trans-4-morpholinocyclohexyl)amino)-3-methyl-5,6,15,16-tetrahydrobenzo[c]pyrido[4,3-j][1]azacyclododecine-1,14(2H,9H)-dione]
0.079 µM	CCN(c1cccc2c1C/C=C/CCCc1cc(C)[nH]c(=O)c1CNC2=O)[C@H]1CC[C@H](N(C)C)CC1 [Example 53, (E)-11-((trans-4-(dimethylamino)cyclohexyl)(ethyl)amino)-3-methyl-5,6,7,10,16,17-hexahydro-1H-benzo[c]pyrido[4,3-k][1]azacyclotridecine-1,15(2H)-dione]
0.251 µM	CCN(c1cccc2c1C/C=C/CCc1cc(C)[nH]c(=O)c1CNC2=O)[C@H]1CC[C@@H](N(C)C)CC1 [Example 55, (E)-10-((cis-4-(dimethylamino)cyclohexyl)(ethyl)amino)-3-methyl-5,6,15,16-tetrahydrobenzo[c]pyrido[4,3-j][1]azacyclododecine-1,14(2H,9H)-dione]
0.126 µM	CCN(c1cccc2c1C/C=C/CCc1cc(C)[nH]c(=O)c1CNC2=O)[C@H]1CC[C@H](NCC(F)F)CC1 [Example 56, (E)-10-((trans-4-((2,2-difluoroethyl)amino)cyclohexyl)(ethyl)amino)-3-methyl-5,6,15,16-tetrahydrobenzo[c]pyrido[4,3-j][1]azacyclododecine-1,14(2H,9H)-dione]
0.1 µM	CCN(c1cccc2c1C/C=C/CCc1cc(C)[nH]c(=O)c1CNC2=O)[C@H]1CC[C@H](N(C)CC(F)F)CC1 [Example 57, (E)-10-((trans-4-((2,2-difluoroethyl)(methyl)amino)cyclohexyl)(ethyl)amino)-3-methyl-5,6,15,16-tetrahydrobenzo[c]pyrido[4,3-j][1]azacyclododecine-1,14(2H,9H)-dione]
0.158 µM	CCN(c1cccc2c1C/C=C/CCc1cc(C)[nH]c(=O)c1CNC2=O)[C@H]1CC[C@H](NCC(F)(F)F)CC1 [Example 58, (E)-10-(ethyl(trans-4-((2,2,2-trifluoroethyl)amino)cyclohexyl)amino)-3-methyl-5,6,15,16-tetrahydrobenzo[c]pyrido[4,3-j][1]azacyclododecine-1,14(2H,9H)-dione]
0.316 µM	CCN(c1cccc2c1C/C=C/CCc1cc(C)[nH]c(=O)c1CNC2=O)[C@H]1CC[C@H](N(C)CC(F)(F)F)CC1 [Example 59, (E)-10-(ethyl(trans-4-(methyl(2,2,2-trifluoroethyl)amino)cyclohexyl)amino)-3-methyl-5,6,15,16-tetrahydrobenzo[c]pyrido[4,3-j][1]azacyclododecine-1,14(2H,9H)-dione]
1.26 µM	CCN(c1cccc2c1C/C=C/CCc1cc(C)[nH]c(=O)c1CNC2=O)[C@H]1CC[C@H](N2CCC2)CC1 [Example 60, (E)-10-((trans-4-(azetidin-1-yl)cyclohexyl)(ethyl)amino)-3-methyl-5,6,15,16-tetrahydrobenzo[c]pyrido[4,3-j][1]azacyclododecine-1,14(2H,9H)-dione]
0.158 µM	CCN(c1cccc2c1C/C=C\Cc1cc(C)[nH]c(=O)c1CNC2=O)[C@H]1CC[C@H](N(C)C)CC1 [Example 61, (Z)-9-((trans-4-(dimethylamino)cyclohexyl)(ethyl)amino)-3-methyl-5,8,14,15-tetrahydro-1H-benzo[c]pyrido[4,3-i][1]azacycloundecine-1,13(2H)-dione]
0.251 µM	CCN(c1cccc2c1CCCCc1cc(C)[nH]c(=O)c1CNC2=O)[C@H]1CC[C@H](N(C)C)CC1 [Example 62, 9-((trans-4-(dimethylamino)cyclohexyl)(ethyl)amino)-3-methyl-5,6,7,8,14,15-hexahydro-1H-benzo[c]pyrido[4,3-i][1]azacycloundecine-1,13(2H)-dione]
0.251 µM	CCN(c1nccc2c1C/C=C/CCc1cc(C)[nH]c(=O)c1CNC2=O)C1CCOCC1 [Example 63, (E)-10-(ethyl(tetrahydro-2H-pyran-4-yl)amino)-3-methyl-5,6,15,16-tetrahydrodipyrido[3,4-c:3′,4′-j][1]azacyclododecine-1,14(2H,9H)-dione]
0.251 µM	Cc1cc2c(c(=O)[nH]1)CNC(=O)c1cccc(N(CCO)C3CCOCC3)c1C/C=C/CC2 [Example 64, (E)-10-((2-hydroxyethyl)(tetrahydro-2H-pyran-4-yl)amino)-3-methyl-5,6,15,16-tetrahydrobenzo[c]pyrido[4,3-j][1]azacyclododecine-1,14(2H,9H)-dione]
0.316 µM	CCN(c1cccc2c1C/C=C/CCc1cc(C)[nH]c(=O)c1CNC2=O)C1CCN(N(C)C)CC1 [Example 65, (E)-10-((1-(dimethylamino)piperidin-4-yl)(ethyl)amino)-3-methyl-5,6,15,16-tetrahydrobenzo[c]pyrido[4,3-j][1]azacyclododecine-1,14(2H,9H)-dione]
0.251 µM	CCN(c1cccc2c1C/C=C/CCc1cc(C)[nH]c(=O)c1CNC2=O)C1CCC2(CC1)CNC2 [Example 66, (E)-10-(ethyl(2-azaspiro[3.5]nonan-7-yl)amino)-3-methyl-5,6,15,16-tetrahydrobenzo[c]pyrido[4,3-j][1]azacyclododecine-1,14(2H,9H)-dione]
0.1 µM	CCN(c1cccc2c1C/C=C/CCc1cc(C)[nH]c(=O)c1CNC2=O)C1CCC2(CC1)CN(C)C2 [Example 67, (E)-10-(ethyl(2-methyl-2-azaspiro[3.5]nonan-7-yl)amino)-3-methyl-5,6,15,16-tetrahydrobenzo[c]pyrido[4,3-j][1]azacyclododecine-1,14(2H,9H)-dione]
0.126 µM	CCN(c1cccc2c1C/C=C/CCc1cc(C)[nH]c(=O)c1CNC2=O)C1CC2(CCNCC2)C1 [Example 68, (E)-10-(ethyl(7-azaspiro[3.5]nonan-2-yl)amino)-3-methyl-5,6,15,16-tetrahydrobenzo[c]pyrido[4,3-j][1]azacyclododecine-1,14(2H,9H)-dione]
